The experiment has as its target T1, Recombinant HCV polymerase (Hepatitis C virus genotype 1b, UniProt P26663).
T1 construct: Recombinant HCV polymerase was tested for its ability to perform primer/template-directed transcription
In words: biochemical. The following applies: inhibition of polymerase-directed transcription; 30 min at 30° C; 30 nM enzyme; cpm data in triplicate. The gist of the method:
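Primer/template-directed RNA synthesis by 2.5 pmol HCV polymerase on poly(rC)300/biotin-dG12 with 1 μM GTP plus α-32P-GTP, in pH 7.2 Tris buffer with 10 mM MgCl2, for 30 min at 30 °C. Products were filter-captured and counted, with 1% DMSO final. IC50 was fitted from triplicate cpm; percent inhibition was reported where IC50 was impractical.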
T1 sequence (P26663 2420-3010): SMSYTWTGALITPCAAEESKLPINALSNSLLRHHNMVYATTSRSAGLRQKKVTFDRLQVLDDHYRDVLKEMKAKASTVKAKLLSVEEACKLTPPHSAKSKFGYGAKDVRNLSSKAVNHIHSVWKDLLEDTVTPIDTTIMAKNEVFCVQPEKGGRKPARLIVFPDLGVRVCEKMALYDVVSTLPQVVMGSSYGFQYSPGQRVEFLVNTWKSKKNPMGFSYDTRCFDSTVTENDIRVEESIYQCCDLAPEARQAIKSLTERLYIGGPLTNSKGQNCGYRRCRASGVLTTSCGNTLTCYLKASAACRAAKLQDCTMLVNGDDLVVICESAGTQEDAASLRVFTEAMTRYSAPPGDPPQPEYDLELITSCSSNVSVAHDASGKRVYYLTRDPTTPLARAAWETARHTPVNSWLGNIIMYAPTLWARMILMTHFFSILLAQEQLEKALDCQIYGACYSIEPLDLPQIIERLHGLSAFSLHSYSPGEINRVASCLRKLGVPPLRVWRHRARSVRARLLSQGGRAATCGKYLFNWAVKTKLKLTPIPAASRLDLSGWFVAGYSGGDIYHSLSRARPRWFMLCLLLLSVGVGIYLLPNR
For `Cc1cc(C)n2nc(CC3=C(O)CC(CCc4ccc(S(C)(=O)=O)c(C(F)(F)F)c4)(C4CCCC4)OC3=O)nc2n1` (stereo not drawn) [B(4), 6-Cyclopentyl-3-[(5,7-dimethyl[1,2,4]triazolo[1,5-a]pyrimidin-2-yl)methyl]-4-hydroxy-6-{2-[4-(methylsulfonyl)-3-(trifluoromethyl)phenyl]ethyl}-5,6-dihydro-2H-pyran-2-one], the half-maximal inhibitory concentration (IC50) is 6 nM.

Regarding `Cc1cc(C)n2nc(CC3=C(O)CC(CCc4ccc([C@@H](C)NC(=O)OC(C)(C)C)cc4)(C4CCCC4)OC3=O)nc2n1` (stereo partly drawn) [A(91), tert-Butyl(1R)-1-[4-(2-{2-cyclopentyl-5-[(5,7-dimethyl[1,2,4]triazolo[1,5-a]pyrimidin-2-yl)methyl]-4-hydroxy-6-oxo-3,6-dihydro-2H-pyran-2-yl}ethyl)phenyl]ethylcarbamate], the IC50 was determined as 160 nM. As to `CCc1cc(CCC2(C3CCCC3)CC(O)=C(Cc3nc4nc(C)cc(C)n4n3)C(=O)O2)ccc1CN1CCOCC1` (single isomer, unassigned) [A(157), 6-Cyclopentyl-3-[(5,7-dimethyl[1,2,4]triazolo[1,5-a]pyrimidin-2-yl)methyl]-{2-[3-ethyl-4-(morpholin-4-ylmethyl)phenyl]ethyl}-4-hydroxy-5,6-dihydro-2H-pyran-2-one], the IC50 came out at 10 nM.

(Values after patent US7151105B2, “Inhibitors of Hepatitis C virus RNA-dependent RNA polymerase, and compositions and treatments using the same” (Agouron Pharmaceuticals, Inc., priority 2004, dated 2006).)
